Experimental data: PMC6470795 (Molecules, 2019)
Like-named read-outs stand apart in the source and are kept apart here.

Assays:
[1] = tested on: hepatic carcinoma 97H cells; experiment: MTT antiproliferative assay, 97H cells; format: cell-based, human; details: Homo sapiens, 97H cells, MTT, 48 h
Excerpt: (§3) The cell lines, 97H (human liver cancer cell), Pc9 (human non-small cell lung cancer), HELA (human epithelial cervical cancer cell line), SJSA1 (human osteosarcoma cells), LO2 (human normal liver cells), and HLF (human embryonic lung fibroblast), used in this study were purchased from the Guangzhou ginny ou Biotechnology Co. Ltd. (Guangzhou, China). Cell lines were cultivated in Dulbecco’s Modified Eagle Medium (DMEM) containing 10% (v/v) heat-inactivated fetal bovine serum (FBS), 100 units/mL penicillin, and 100 μg/mL streptomycin.
(§4) For the cytotoxicity assay, the cells grown in the logarithmic phase were seeded into 96-well plates (5 × 10^3 cells/well) for 24 h, and then exposed to different concentrations of the test compounds for 48 h. After the attached cells had been incubated with 5 mg/mL MTT (Sigma, St. Louis, MO, USA) for another 4 h, the suspension was discarded and subsequently the dark blue crystals (formazan) were solubilized in dimethyl sulfoxide (DMSO). Then, the absorbance was measured at 570 nm using a multifunction microplate reader (Molecular Devices, Flex Station 3) (Thermo Fisher Scientific, San Jose, CA, USA), and each experiment was performed at least in triplicate.

[2] = tested on: Pc9 (human non-small cell lung cancer cells); experiment: MTT antiproliferative assay, Pc9 cells; format: cell-based; details: PC-9, Pc9 cells, MTT, 48 h, read-out: IC50 Pc9
Excerpt: as §3, §4

[3] = tested on: Hela (human epithelial cervical cancer cells); experiment: MTT antiproliferative assay, Hela cells; format: cell-based; details: Hela cells, MTT, 48 h, read-out: IC50 Hela
Excerpt: as §3, §4

[4] = tested on: SJSA1 (human osteosarcoma cells); experiment: MTT antiproliferative assay, SJSA1 cells; format: cell-based; details: SJSA-1, SJSA1 cells, MTT, 48 h, read-out: IC50 SJSA1
Excerpt: as §3, §4

[5] = tested on: LO2 (human normal liver cells); experiment: MTT assay, LO2 normal cells; format: cell-based; details: LO2 normal cells, MTT, 48 h, read-out: IC50 LO2
Excerpt: as §3, §4

[6] = tested on: HLF (human embryonic lung fibroblast cells); experiment: MTT assay, HLF normal cells; format: cell-based; details: HLF normal cells, MTT, 48 h, read-out: IC50 HLF
Excerpt: as §3, §4

[7] = biological target: T1, c-Met enzyme (Homo sapiens, UniProt P08581); experiment: Kinase inhibition assay; format: biochemical
T1 construct: purchased Invitrogen
Procedure: The c-Met enzymes and the Z’-LYTE Kinase Kit were purchased from Invitrogen. The tested compounds were used in concentrations of 0.001 to 10 mM. Briefly, 1 μL of an inhibitor or 5% DMSO, 2 μL of enzyme, and 2 μL of substrate/ATP mix were added to a 384-well low volume plate L and incubated at room temperature for 60 min. Then, 5 μL of ADP-Glo™ Reagent was added, and the mixture was incubated at room temperature for 40 min. Finally, 10 μL of Kinase Detection Reagent was added, and the mixture was incubated at room temperature for 30 min. The plate was measured on a multifunction microplate reader (Molecular Devices, Flex Station 3), and the luminescence was recorded (integration time 0.5–1 s). Curve fitting and data presentations were performed using Graph Pad Prism version 5.0 (GraphPad Inc., La Jolla, CA, USA). Every experiment was repeated at least three times.

[8] = tested on: hepatic carcinoma 97H cells; experiment: Cell cycle analysis by flow cytometry (PI staining); format: cell-based, human
Procedure: 97H cells were seeded in 6-well plates (3 × 10^5 cells/well) and incubated in the presence or absence of compound 31e at the indicated concentrations for 24 h. Then, cells were harvested by centrifugation and fixed in 70% ice-cold ethanol overnight. The ethanol was removed the next day, and then the cells were resuspended in the ice-cold PBS and treated with RNAse A (Keygen Biotech, Nanjing, China) at 37 °C for 30 min, followed by incubation with the DNA staining solution propidium iodide (PI) (Keygen Biotech, Nanjing, China) at 4 °C for 30 min. About 10,000 events were detected by flow cytometry (Epics XL, Beckman Coulter, Fullerton, CA, USA) at 488 nm. The data regarding the number of cells in different phases of the cell cycle were analyzed by EXPO32 ADC analysis software (Beckman Coulter, Fullerton, CA, USA).
Figure 3 Effect of 31e on cell cycle progression. (A) 97H cells (3 × 10^5 cells/sample) were treated with increasing concentrations of 31e for 24 h, cells were harvested, fixed with 70% ethanol, and stained with propidium iodide (PI). The cellular DNA content was then determined by flow cytometry analysis. (B) Quantitative analysis of the percentage of cells in each cell cycle phase was analyzed by EXPO32 ADC analysis software.

[9] = tested on: hepatic carcinoma 97H cells; experiment: Anti-cell-migration study; format: cell-based, human; details: 36 h
Procedure: 97H cells were plated in a 6-well culture dish at 5 × 10^4 cells/dish and grown for 24 h, and the non-migrated cells were scraped off the upper surface of the membrane with a 10 μL pipette. The medium was then replaced with 10% serum DMEM medium and treated with compound 31e at the indicated concentrations for another 36 h. After washing with phosphate buffer solution (PBS), the cell images were immediately detected by a Zeiss LSM 570 laser scanning confocal microscope (Carl Zeiss, Jena, Germany).
Figure 4 Effect of 31e on the migration of hepatic carcinoma 97H cells. Hepatic carcinoma 97H cells (50 × 10^4 cells) suspended in free serum Dulbecco’s Modified Eagle Medium (DMEM) containing 31e for 36 h were photographed under a phase contrast microscopy (magnification: 4 × objective). All results were expressed as the mean ± SD of at least three independent experiments.

[10] = tested on: c-Met phosphorylation; experiment: Western blot, phosphorylation of c-Met in 97H cells; format: cell-based, human
Procedure: (§1) 97H cells seeded in 60-mm dishes at a density of 5 × 10^5 cells/well were incubated with or without compound 31e at the indicated concentrations for 4 h. After incubation, the cells were washed twice with ice-cold PBS, and then lysed in RIPA lysis buffer (Radio Immunoprecipitation Assay) containing 150 mM NaCl, 50 mM Tris (pH 7.4), 1% (w/v) sodium deoxycholate, 1% (v/v) Triton X-100, 0.1% (w/v) SDS, and 1 mM EDTA (ethylenediaminetetraacetic acid) (Beyotime, Shanghai, China). The lysates were incubated at 0 °C for 30 min, and vortexed every 10 min intermittently, then the total proteins were harvested by centrifuging at 12,500 g for 15 min. The protein concentrations were determined by a BCA (bicinchoninic acid) Protein Assay Kit (Thermo Fisher Scientific, Rockford, IL, USA), and then the protein extracts were reconstituted in loading buffer containing 62 mM Tris-HCl, 2% SDS (sodium dodecyl sulfate), 10% glycerol, and 5% β-mercaptoethanol (Beyotime, Shanghai, China), and boiled at 100 °C for 3 min. An equal amount of the proteins (40 μg) was separated by 8%–12% sodium dodecyl sulphate-polyacrylamide gel electrophoresis (SDS-PAGE) and were transferred to nitrocellulose membranes (Amersham Biosciences, Little Chalfont, Buckinghamshire, UK). After blocking with 5% non-fat dried milk in TBS containing 1% Tween-20 for 90 min at room temperature, the membranes were incubated overnight with specific primary antibodies (Abcam, London, England) at 4 °C. After three washes in TBST, the membranes were incubated with the appropriate HRP-conjugated (Horseradish Peroxidase-conjugated) secondary antibodies at room temperature for 2 h. The blots were developed with enhanced chemiluminescence (Pierce, Rockford, IL, USA) and detected by an LAS4000 imager (GE Healthcare, Waukesha, WI, USA).
(§2) Figure 5 Compound 31e inhibits c-Met phosphorylation and downstream signaling in cancer cell lines. Cells treated with compound 31e for 1 h or 2 h were then lysed and subjected to Western blot analysis.

[11] = tested on: Akt phosphorylation; experiment: Western blot, phosphorylation of Akt in 97H cells; format: cell-based, human
Procedure: as §1, §2

[12] = same concentration, 2 h versus 1 h

T1 sequence (P08581 25-1390): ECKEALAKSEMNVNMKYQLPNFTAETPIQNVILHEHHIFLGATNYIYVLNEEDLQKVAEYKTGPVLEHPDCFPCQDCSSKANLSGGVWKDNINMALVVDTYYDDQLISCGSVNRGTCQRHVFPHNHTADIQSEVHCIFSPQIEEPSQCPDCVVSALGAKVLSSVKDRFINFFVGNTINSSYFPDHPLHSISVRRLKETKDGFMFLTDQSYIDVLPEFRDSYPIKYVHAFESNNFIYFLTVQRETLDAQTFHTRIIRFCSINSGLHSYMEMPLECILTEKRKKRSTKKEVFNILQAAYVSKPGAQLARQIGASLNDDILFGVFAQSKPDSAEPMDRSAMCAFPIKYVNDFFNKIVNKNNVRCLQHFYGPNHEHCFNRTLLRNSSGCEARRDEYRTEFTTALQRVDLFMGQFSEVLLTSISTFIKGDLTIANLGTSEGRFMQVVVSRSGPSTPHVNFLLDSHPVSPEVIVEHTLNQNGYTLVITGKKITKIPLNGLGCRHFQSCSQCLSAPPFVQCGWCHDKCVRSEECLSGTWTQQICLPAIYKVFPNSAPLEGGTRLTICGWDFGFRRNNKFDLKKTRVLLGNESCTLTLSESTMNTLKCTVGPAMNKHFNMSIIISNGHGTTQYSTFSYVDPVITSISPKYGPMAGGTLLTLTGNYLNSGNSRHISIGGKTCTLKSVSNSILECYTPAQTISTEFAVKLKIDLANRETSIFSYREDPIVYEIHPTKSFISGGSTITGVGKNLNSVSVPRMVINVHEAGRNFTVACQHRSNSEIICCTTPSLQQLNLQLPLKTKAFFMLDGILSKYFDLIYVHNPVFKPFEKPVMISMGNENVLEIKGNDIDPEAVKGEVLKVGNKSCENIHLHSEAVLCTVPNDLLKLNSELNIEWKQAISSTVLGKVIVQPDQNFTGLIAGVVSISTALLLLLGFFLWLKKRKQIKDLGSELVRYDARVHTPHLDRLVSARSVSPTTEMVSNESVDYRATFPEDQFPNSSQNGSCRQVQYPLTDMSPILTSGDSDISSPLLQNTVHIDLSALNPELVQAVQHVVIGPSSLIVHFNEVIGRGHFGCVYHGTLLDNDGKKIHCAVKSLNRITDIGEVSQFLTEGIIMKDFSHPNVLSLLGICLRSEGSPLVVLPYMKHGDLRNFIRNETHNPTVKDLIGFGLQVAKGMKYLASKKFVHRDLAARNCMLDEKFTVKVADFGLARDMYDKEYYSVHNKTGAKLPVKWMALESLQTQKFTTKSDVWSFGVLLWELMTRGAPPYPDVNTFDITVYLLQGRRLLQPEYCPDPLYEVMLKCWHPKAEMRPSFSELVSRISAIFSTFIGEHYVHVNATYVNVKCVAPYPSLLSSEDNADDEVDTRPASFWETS

IC50 ([1]; read-out: IC50 of Against 97H cells): 0.026 µM | IC50 ([1]; read-out: IC50 value, 97H cells): 0.026 µM | IC50 [2]: 42.9 ± 0.13 µM | IC50 [3]: > 50 µM | IC50 [4]: > 50 µM | IC50 [7]: 0.032 ± 0.06 µM | melting point: 98.2 to 99.9 °C
SMILES: CC(c1cccc(-c2ncc(OCC3CCN(C)CC3)cn2)c1)n1cc(-c2cccc(C#N)c2)cnc1=O (stereo not drawn) [Compound 31e, 5-(3-cyanophenyl)-1-(1-(3-(5-((1-methylpiperidin-4-yl)methoxy)pyrimidin-2-yl)phenyl)ethyl)pyrimidin-2(1H)-one]
IC50 [5]: > 50 µM | IC50 [6]: > 50 µM | population of cells in the G1 phase ([8]; 10 nM, 24 h (vehicle DMSO 70.42%)): 83.84% | population of cells in the G1 phase ([8]; 100 nM, 24 h): 90.88% | population of cells in the G2/M phase ([8]; 100 nM, 24 h): 5.78% | inhibition of migration ([9]; 10 nM): moderate inhibition of migration | inhibition of migration ([9]; 50 nM): significantly suppressed | inhibition of migration ([9]; 100 nM): completely suppressed | phosphorylation of c-Met ([10]; 100 nM, 1 h): completely inhibited | phosphorylation level of c-Met ([10]; 10 or 50 nM, 1 h): suppressed in a dose-dependent manner | inhibition of c-Met phosphorylation [10, 12]: more obvious | phosphorylation of Akt ([11]; 100 nM, 1 h): completely inhibited | phosphorylation level of Akt ([11]; 10 or 50 nM, 1 h): suppressed in a dose-dependent manner | inhibition of Akt phosphorylation [11, 12]: more obvious
